From publication PMC12209991 (Clinical Pharmacology in Drug Development, 2025)
Entries after “also recorded” stand apart in the source; their conditions may differ. Read-outs that look alike come from different tables or passages of the source.

Legend:
[1] = Multiple ascending dose (MAD) pharmacokinetics in healthy volunteers, BID for 14 days; format: in vivo, human; conditions: for AUC / Cmax / Tmax / half-life: human, plasma, oral; for Tmax: read-out: Tmax, median [min-max]
Experimental: (§1) Analytes were separated by HPLC on a Waters Atlantis T3 analytical column using a gradient mobile phase (mobile phase A: 10% acetonitrile, 90% water, 10 mM ammonium acetate, 0.3% formic acid; mobile phase B: 90% acetonitrile, 10% water, 10 mM ammonium acetate, 0.3% formic acid) run at 0.4 mL/min with initial mobile phase B concentration of 30%.

[2] = Pantoprazole (PPI) effect on RBN-3143 pharmacokinetics, cross-over; format: in vivo, human; conditions: for AUC(0-inf) / AUC(0-t) / Cmax: human, plasma, po, single 500 mg oral dose
Experimental: as §1

[3] = molecular target: CYP3A4 (Homo sapiens, UniProt P08684); assay: In vitro metabolism; format: in vitro ADME; conditions: unpublished data
CYP3A4, sequence (P08684 whole entry): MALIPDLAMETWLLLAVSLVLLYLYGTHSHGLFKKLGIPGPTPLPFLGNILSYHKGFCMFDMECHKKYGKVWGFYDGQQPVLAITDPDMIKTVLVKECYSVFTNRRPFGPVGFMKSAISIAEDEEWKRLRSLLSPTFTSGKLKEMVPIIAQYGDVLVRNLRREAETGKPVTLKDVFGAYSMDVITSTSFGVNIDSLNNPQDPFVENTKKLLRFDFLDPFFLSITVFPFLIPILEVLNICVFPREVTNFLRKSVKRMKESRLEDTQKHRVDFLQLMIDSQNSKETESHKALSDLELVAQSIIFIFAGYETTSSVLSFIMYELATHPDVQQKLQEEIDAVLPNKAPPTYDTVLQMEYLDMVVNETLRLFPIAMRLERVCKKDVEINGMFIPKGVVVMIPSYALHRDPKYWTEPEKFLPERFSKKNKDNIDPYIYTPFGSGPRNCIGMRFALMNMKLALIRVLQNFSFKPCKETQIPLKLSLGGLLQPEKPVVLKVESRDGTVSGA

Q: Which results are given for `CC(=O)N1CCC(COc2cc(F)c3c(=O)[nH]c(CSC4CCOCC4)nc3c2)CC1` [RBN‐3143]?
A: time to steady-state ([1]; BID dosing): ≤ 3 days; AUC ([1]; 150 mg, 150 mg BID, Day 1, plasma, read-out: AUC12, geometric mean (Geo CV%)): 3.47 µg·h/mL; AUC ([1]; 150 mg, 150 mg BID, Day 1, plasma, read-out: AUC12, mean (SD)): 3.61 µg·h/mL; Cmax ([1]; 150 mg, 150 mg BID, Day 1, plasma, read-out: Cmax, geometric mean (Geo CV%)): 0.597 µg/mL; Cmax ([1]; 150 mg, 150 mg BID, Day 1, plasma, read-out: Cmax, mean (SD)): 0.623 µg/mL; Tmax ([1]; 150 mg, 150 mg BID, Day 1, plasma): 2.5 h; half-life ([1]; 150 mg, 150 mg BID, Day 1, plasma, read-out: t1/2, geometric mean (Geo CV%) (converted)): 4.13 h; half-life ([1]; 150 mg, 150 mg BID, Day 1, plasma, read-out: t1/2, mean (SD) (converted)): 4.52 h; AUC ([1]; 150 mg, 150 mg BID, Day 14, plasma, read-out: AUC12, geometric mean (Geo CV%)): 5.57 µg·h/mL; AUC ([1]; 150 mg, 150 mg BID, Day 14, plasma, read-out: AUC12, mean (SD)): 5.66 µg·h/mL; Cmax ([1]; 150 mg, 150 mg BID, Day 14, plasma, read-out: Cmax, geometric mean (Geo CV%)): 0.846 µg/mL; Cmax ([1]; 150 mg, 150 mg BID, Day 14, plasma, read-out: Cmax, mean (SD)): 0.861 µg/mL; Tmax ([1]; 150 mg, 150 mg BID, Day 14, plasma): 2.5 h; AUC ([1]; 300 mg, 300 mg BID, Day 1, plasma, read-out: AUC12, geometric mean (Geo CV%)): 5.54 µg·h/mL; AUC ([1]; 300 mg, 300 mg BID, Day 1, plasma, read-out: AUC12, mean (SD)): 5.59 µg·h/mL; Cmax ([1]; 300 mg, 300 mg BID, Day 1, plasma, read-out: Cmax, geometric mean (Geo CV%)): 0.907 µg/mL; Cmax ([1]; 300 mg, 300 mg BID, Day 1, plasma, read-out: Cmax, mean (SD)): 0.925 µg/mL; Tmax ([1]; 300 mg, 300 mg BID, Day 1, plasma): 2.5 h; half-life ([1]; 300 mg, 300 mg BID, Day 1, plasma, read-out: t1/2, geometric mean (Geo CV%) (converted)): 4.15 h; half-life ([1]; 300 mg, 300 mg BID, Day 1, plasma, read-out: t1/2, mean (SD) (converted)): 4.19 h; AUC ([1]; 300 mg, 300 mg BID, Day 14, plasma, read-out: AUC12, geometric mean (Geo CV%)): 9.55 µg·h/mL; AUC ([1]; 300 mg, 300 mg BID, Day 14, plasma, read-out: AUC12, mean (SD)): 9.86 µg·h/mL; Cmax ([1]; 300 mg, 300 mg BID, Day 14, plasma, read-out: Cmax, geometric mean (Geo CV%)): 1.42 µg/mL; Cmax ([1]; 300 mg, 300 mg BID, Day 14, plasma, read-out: Cmax, mean (SD)): 1.47 µg/mL; Tmax ([1]; 300 mg, 300 mg BID, Day 14, plasma): 2 h; AUC ([1]; 500 mg, 500 mg BID, Day 1, plasma, read-out: AUC12, geometric mean (Geo CV%)): 8.04 µg·h/mL; AUC ([1]; 500 mg, 500 mg BID, Day 1, plasma, read-out: AUC12, mean (SD)): 8.34 µg·h/mL; Cmax ([1]; 500 mg, 500 mg BID, Day 1, plasma, read-out: Cmax, geometric mean (Geo CV%)): 1.27 µg/mL; Cmax ([1]; 500 mg, 500 mg BID, Day 1, plasma, read-out: Cmax, mean (SD)): 1.32 µg/mL; Tmax ([1]; 500 mg, 500 mg BID, Day 1, plasma): 2.52 h; half-life ([1]; 500 mg, 500 mg BID, Day 1, plasma, read-out: t1/2, geometric mean (Geo CV%) (converted)): 4.38 h; half-life ([1]; 500 mg, 500 mg BID, Day 1, plasma, read-out: t1/2, mean (SD) (converted)): 4.39 h; AUC ([1]; 500 mg, 500 mg BID, Day 14, plasma, read-out: AUC12, geometric mean (Geo CV%)): 12.4 µg·h/mL; AUC ([1]; 500 mg, 500 mg BID, Day 14, plasma, read-out: AUC12, mean (SD)): 12.6 µg·h/mL; Cmax ([1]; 500 mg, 500 mg BID, Day 14, plasma, read-out: Cmax, geometric mean (Geo CV%)): 1.83 µg/mL; Cmax ([1]; 500 mg, 500 mg BID, Day 14, plasma, read-out: Cmax, mean (SD)): 1.88 µg/mL; Tmax ([1]; 500 mg, 500 mg BID, Day 14, plasma): 1.5 h; AUC(0-inf) ([2]; 500 mg, fasted without pantoprazole, N=12, linear mixed-effects model, read-out: AUCinf, GLSM): 13.3 µg·h/mL; AUC(0-t) ([2]; 500 mg, fasted without pantoprazole, N=12, linear mixed-effects model, read-out: AUClast, GLSM): 12.8 µg·h/mL; Cmax ([2]; 500 mg, fasted without pantoprazole, N=12, linear mixed-effects model, read-out: Cmax, GLSM): 1.53 µg/mL; AUC(0-inf) ([2]; 500 mg, fasted without pantoprazole, read-out: AUCinf, geometric mean (Geo CV%)): 13.3 µg·h/mL; AUC(0-inf) ([2]; 500 mg, fasted without pantoprazole, read-out: AUCinf, mean (SD)): 13.8 µg·h/mL; AUC(0-t) ([2]; 500 mg, fasted without pantoprazole, read-out: AUClast, geometric mean (Geo CV%)): 12.8 µg·h/mL; AUC(0-t) ([2]; 500 mg, fasted without pantoprazole, read-out: AUClast, mean (SD)): 13.3 µg·h/mL; Cmax ([2]; 500 mg, fasted without pantoprazole, read-out: Cmax, geometric mean (Geo CV%)): 1.53 µg/mL; Cmax ([2]; 500 mg, fasted without pantoprazole, read-out: Cmax, mean (SD)): 1.6 µg/mL; AUC(0-inf) ([2]; fasted with pantoprazole 40 mg QD, N=12, linear mixed-effects model, read-out: AUCinf, GLSM): 13.8 µg·h/mL; AUC(0-t) ([2]; fasted with pantoprazole 40 mg QD, N=12, linear mixed-effects model, read-out: AUClast, GLSM): 13.4 µg·h/mL; Cmax ([2]; fasted with pantoprazole 40 mg QD, N=12, linear mixed-effects model, read-out: Cmax, GLSM): 1.56 µg/mL; AUC(0-inf) ([2]; fasted with pantoprazole 40 mg QD, read-out: AUCinf, geometric mean (Geo CV%)): 13.3 µg·h/mL; AUC(0-inf) ([2]; fasted with pantoprazole 40 mg QD, read-out: AUCinf, mean (SD)): 13.7 µg·h/mL; AUC(0-t) ([2]; fasted with pantoprazole 40 mg QD, read-out: AUClast, geometric mean (Geo CV%)): 13 µg·h/mL; AUC(0-t) ([2]; fasted with pantoprazole 40 mg QD, read-out: AUClast, mean (SD)): 13.4 µg·h/mL; Cmax ([2]; fasted with pantoprazole 40 mg QD, read-out: Cmax, geometric mean (Geo CV%)): 1.54 µg/mL; Cmax ([2]; fasted with pantoprazole 40 mg QD, read-out: Cmax, mean (SD)): 1.58 µg/mL; effect of pantoprazole on RBN-3143 exposure/PK ([2]; pantoprazole 40 mg QD pre-treatment, RBN-3143 500 mg): did not impact; also recorded: no effect; also recorded: did not alter; also recorded: unaffected; metabolizing enzyme [3]: predominantly metabolized by cytochrome P4503A4 (CYP3A4)
